Measured values: patent US9067905B2, “Sulphone compounds and methods of making and using same” (Zafgen, Inc., priority 2009, dated 2015)
Structures can show the parent of a compound that is named as a salt.

Target: T1, recombinant human MetAP2 (Homo sapiens, UniProt P50579)
T1 construct: Flag; made in house; host or cells: Sf9 insect cells
Assay: Inhibition of recombinant human MetAP2 activity (Amplex red fluorescence assay)
Assay type: biochemical
Conditions: manganese Flag-MetAP2, 0.75 mM Methionine-Alanine-Serine substrate, 30 minutes at 25° C., pH 7.5, 1% DMSO
Experimental: Compounds are tested for their capacity to inhibit recombinant human MetAP2 activity using the following assay.
Human recombinant Flag-MetAP2 expressed in Sf9 cells followed by affinity purification and EDTA treatment to remove endogenous active site cation is dialysed against MnCl2 to produce the manganese enzyme used in the assay. The assay is carried out for 30 minutes at 25° C. in 50 mM HEPES buffer containing 100 mM NaCl, pH 7.5 the presence of 0.75 mM Methionine-Alanine-Serine (MAS) substrate and 50 μg/ml amino acid oxidase using a dilution of purified MetAP2 giving approximately 50,000 RFU control activity. Cleavage of the substrate by MetAP2 and oxidation of free methionine by amino acid oxidase is detected and quantified using fluorescence generated by Amplex red (10-acetyl-3,7-dihydroxyphenoxazine) in combination with horseradish peroxidase which detects H2O2 released during the oxidation step. The fluorescent signal is detected using a multiwell fluorimeter. Compounds are diluted in DMSO prior to addition to assay buffer, the final DMSO concentration in the assay being 1%.
The IC50 is defined as the concentration at which a given compound achieves 50% inhibition of control. IC50 values are calculated using the XLfit software package (version 2.0.5).

T1 sequence (P50579 whole entry): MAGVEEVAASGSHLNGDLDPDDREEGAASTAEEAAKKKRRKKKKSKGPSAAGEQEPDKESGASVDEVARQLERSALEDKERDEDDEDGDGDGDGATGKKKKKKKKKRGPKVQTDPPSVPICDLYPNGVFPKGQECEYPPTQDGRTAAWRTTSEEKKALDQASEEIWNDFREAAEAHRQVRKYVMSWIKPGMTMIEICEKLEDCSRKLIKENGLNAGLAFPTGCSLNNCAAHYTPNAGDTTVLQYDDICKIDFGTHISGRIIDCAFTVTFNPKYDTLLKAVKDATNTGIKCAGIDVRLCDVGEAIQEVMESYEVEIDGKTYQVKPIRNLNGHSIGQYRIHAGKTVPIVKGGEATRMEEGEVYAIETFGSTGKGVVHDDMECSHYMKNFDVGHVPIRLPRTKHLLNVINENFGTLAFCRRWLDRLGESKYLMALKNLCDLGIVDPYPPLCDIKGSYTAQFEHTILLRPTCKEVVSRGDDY

Row | Structure (SMILES) | IC50
1 | CCc1ccc(C(C)S(=O)(=O)c2ccccc2)c(C(=O)O)c1OC (stereo not drawn) [6-(1-Benzenesulphonylethyl)-3-ethyl-2-methoxy-benzoic acid] | 200 to 2000 nM
2 | NCCCOc1c(-c2ccoc2)ccc(CS(=O)(=O)c2ccccc2)c1C(=O)O [2-(3-Aminopropoxy)-6-(benzenesulphonylmethyl)-3-(furan-3-yl)benzoic acid hydrochloride] | 200 to 2000 nM
3 | COc1c(-c2ccccc2)ccc(CS(=O)(=O)c2ccccc2)c1C(=O)O [6-(Benzenesulphonylmethyl)-2-methoxy-3-phenylbenzoic acid] | > 2000 nM
4 | COc1c(-c2cnco2)ccc(CS(=O)(=O)c2ccccc2)c1C(=O)O [6-(Benzenesulphonylmethyl)-2-methoxy-3-(oxazol-5-yl)benzoic acid] | 200 to 2000 nM
5 | CCc1ccc(CS(=O)(=O)c2ccccc2)c(C(=O)O)c1OC [6-(Benzenesulphonylmethyl)-3-ethyl-2-methoxy-benzoic acid] | 200 to 2000 nM
6 | COc1c(-n2ccnc2)ccc(CS(=O)(=O)c2ccccc2)c1C(=O)O [6-(Benzenesulphonylmethyl)-3-(imidazol-1-yl)-2-methoxybenzoic acid] | > 2000 nM
7 | COc1c(-c2ccoc2)ccc(CS(=O)(=O)N2CCCCC2)c1C(=O)O [3-(Furan-3-yl)-2-methoxy-6-(piperidine-1-ylsulphonylmethyl)benzoic acid] | < 200 nM
8 | CCN(CC)CCNc1ccccc1S(=O)(=O)Cc1ccc(-c2ccoc2)c(OC)c1C(=O)O [6-[2-(2-Diethylaminoethylamino)benzenesulphonylmethyl]-3-(furan-3-yl)-2-methoxybenzoic acid] | 200 to 2000 nM
9 | COc1c(-c2ccoc2)ccc(CS(=O)(=O)c2cccnc2)c1C(=O)O [3-(Furan-3-yl)-2-methoxy-6-(pyridin-3-ylsulphonylmethyl)benzoic acid] | 200 to 2000 nM
10 | NCCOc1c(-c2ccoc2)ccc(CS(=O)(=O)c2cccc(Cl)c2)c1C(=O)O [2-(2-Aminoethoxy)-6-(3-chlorobenzenesulphonylmethyl)-3-(furan-3-yl)benzoic acid hydrochloride] | < 200 nM
11 | CNCCOc1c(-c2ccoc2)ccc(CS(=O)(=O)c2ccccc2)c1C(=O)O [6-(Benzenesulphonylmethyl)-3-(furan-3-yl)-2-[2-(methylamino)-ethoxy]benzoic acid hydrochloride] | > 2000 nM
12 | CCc1ccc(CS(=O)(=O)c2ccccc2)c(C(=O)O)c1OCCN [2-(2-Aminoethoxy)-3-ethyl-6-benzenesulphonylmethylbenzoic acid hydrochloride] | < 200 nM
13 | COc1c(-c2ccoc2)ccc(CS(=O)(=O)N2C3CCC2CC3)c1C(=O)O [6-(7-Azabicyclo[2.2.1]heptane-7-ylsulphonylmethyl)-3-(furan-3-yl)-2-methoxybenzoic acid] | 200 to 2000 nM
14 | NCCCc1c(-c2ccoc2)ccc(CS(=O)(=O)c2ccccc2)c1C(=O)O [2-(3-Aminopropyl)-6-(benzenesulphonylmethyl)-3-(furan-3-yl)-benzoic acid hydrochloride] | > 2000 nM
15 | NCCOc1c(-c2ccoc2)ccc(CS(=O)(=O)c2ccccc2)c1C(=O)O [2-(2-Aminoethoxy)-6-(benzenesulphonylmethyl)-3-(furan-3-yl)benzoic acid hydrochloride] | < 200 nM
16 | NC(=O)COc1c(-c2ccoc2)ccc(CS(=O)(=O)c2ccccc2)c1C(=O)O [6-(Benzenesulphonylmethyl)-2-(carbamoylmethoxy)-3-(furan-3-yl)-benzoic acid] | 200 to 2000 nM
17 | COc1cccc2ccc(CS(=O)(=O)c3ccccc3)c(C(=O)O)c12 [2-(Benzenesulphonylmethyl)-8-methoxynaphthalene-1-carboxylic acid] | > 2000 nM
18 | O=C(O)c1c(CS(=O)(=O)c2ccccc2)ccc2ccccc12 [2-(Benzenesulphonylmethyl)naphthalene-1-carboxylic acid] | 200 to 2000 nM
19 | NCCOc1c(-c2ccoc2)ccc(CS(=O)(=O)c2ccc(F)cc2)c1C(=O)O [2-(2-Aminoethoxy)-6-(4-fluorobenzenesulphonylmethyl)-3-(furan-3-yl)benzoic acid hydrochloride] | < 200 nM
20 | COc1ccccc1S(=O)(=O)Cc1ccc(-c2ccoc2)c(OCCN)c1C(=O)O [2-(2-Aminoethoxy)-3-(furan-3-yl)-6-(2-methoxybenzenesulphonyl-methyl)benzoic acid hydrochloride] | 200 to 2000 nM
21 | CN=S(=O)(Cc1ccc(-c2ccoc2)c(OC)c1C(=O)O)c1ccccc1 (stereo not drawn) [3-(Furan-3-yl)-2-methoxy-6-[(N-methyl-S-phenylsulphonimidoyl)methyl]benzoic acid] | 200 to 2000 nM
22 | COc1c(-c2ccoc2)ccc(CS(=O)(=O)N2CCC(O)C2)c1C(=O)O (stereo not drawn) [3-(Furan-3-yl)-6-(3-hydroxypyrrolidine-1-ylsulphonylmethyl)-2-methoxybenzoic acid] | 200 to 2000 nM
23 | COc1c(-c2cocn2)ccc(CS(=O)(=O)c2ccccc2)c1C(=O)O [6-(Benzenesulphonylmethyl)-3-(oxazol-4-yl)-2-methoxybenzoic acid] | > 2000 nM
24 | Cc1occc1-c1ccc(CS(=O)(=O)c2ccccc2)c(C(=O)O)c1 [2-(Benzenesulphonylmethyl)-5-(2-methylfuran-3-yl)benzoic acid] | 200 to 2000 nM
25 | COc1c(-c2ccco2)ccc(CS(=O)(=O)c2ccccc2)c1C(=O)O [6-(Benzenesulphonylmethyl)-3-(furan-2-yl)-2-methoxy-benzoic acid] | > 2000 nM
26 | COc1c(-c2ccoc2)ccc(CS(=O)(=O)c2ccccc2O)c1C(=O)O [3-(Furan-3-yl)-6-(2-hydroxybenzenesulphonylmethyl)-2-methoxybenzoic acid] | < 200 nM
27 | COc1c(-c2ccoc2)ccc(CS(=O)(=O)c2cccc(O)c2)c1C(=O)O [3-(Furan-3-yl)-6-(3-hydroxybenzenesulphonylmethyl)-2-methoxy-benzoic acid] | 200 to 2000 nM
28 | CCCc1ccc(CS(=O)(=O)c2ccccc2)c(C(=O)O)c1OC [6-(Benzenesulphonylmethyl)-2-methoxy-3-propyl-benzoic acid] | > 2000 nM
29 | COc1c(-c2ccoc2)ccc(CS(=O)(=O)c2ccccc2Cl)c1C(=O)O [6-(2-Chlorobenzenesulphonylmethyl)-3-(furan-3-yl)-2-methoxybenzoic acid] | 200 to 2000 nM

Continued, values first:

Row | IC50 | Structure (SMILES)
30 | 200 to 2000 nM | CCc1ccc(CS(=O)(=O)c2ccccc2)c(C(=O)O)c1-c1cc[nH]n1 [6-(Benzenesulphonylmethyl)-3-ethyl-2-(1H-pyrazol-3-yl)benzoic acid]
31 | > 2000 nM | COc1c(-c2cc[nH]n2)ccc(CS(=O)(=O)c2ccccc2)c1C(=O)O [6-(Benzenesulphonylmethyl)-2-methoxy-3-(pyrazol-3-yl)benzoic acid]
32 | < 200 nM | COc1c(-c2ccoc2)ccc(CS(=O)(=O)c2ccc(F)cc2)c1C(=O)O [6-(4-Fluorobenzenesulphonylmethyl)-3-(furan-3-yl)-2-methoxybenzoic acid]
33 | > 2000 nM | COc1c(-c2cccs2)ccc(CS(=O)(=O)c2ccccc2)c1C(=O)O [6-(Benzenesulphonylmethyl)-2-methoxy-3-(thien-2-yl)benzoic acid]
34 | < 200 nM | COc1c(-c2ccoc2)ccc(CS(=O)(=O)c2ccccc2/C=C\CN2CCCCC2)c1C(=O)O [(Z)-3-(Furan-3-yl)-2-methoxy-6-((2-(3-(piperidin-1-yl)prop-1-enyl)benzenesulfonyl)methyl)benzoic acid]
35 | > 2000 nM | CCN(CC)CC1CCN1c1ccccc1S(=O)(=O)Cc1ccc(-c2ccoc2)c(OC)c1C(=O)O (stereo not drawn) [6-[2-(2-Diethylaminomethylazetidin-1-yl)-benzenesulphonylmethyl]-3-(furan-3-yl)-2-methoxybenzoic acid]
36 | < 200 nM | COc1c(-c2ccoc2)ccc(CS(=O)(=NC#N)c2ccccc2)c1C(=O)O (stereo not drawn) [6-[(N-cyano-S-phenylsulphonimidoyl)methyl]-3-(furan-3-yl)-2-methoxybenzoic acid]
37 | > 2000 nM | COc1c(C#N)ccc(CS(=O)(=O)c2ccccc2)c1C(=O)O [6-(Benzenesulphonylmethyl)-3-cyano-2-methoxy-benzoic acid]
38 | > 2000 nM | CCc1ccc(CS(=O)(=O)c2ccc(Cl)cc2)c(C(=O)O)c1OC [6-(4-Chlorobenzenesulphonylmethyl)-3-ethyl-2-methoxy-benzoic acid]
39 | 200 to 2000 nM | COc1c(C)ccc(CS(=O)(=O)c2ccccc2)c1C(=O)O [6-(Benzenesulphonylmethyl)-2-methoxy-3-methyl-benzoic acid]
40 | < 200 nM | COc1c(-c2ccoc2)ccc(CS(=O)(=O)c2ccccc2)c1C(=O)O [6-(Benzenesulphonylmethyl)-3-(furan-3-yl)-2-methoxy-benzoic acid]
41 | 200 to 2000 nM | COc1c(-c2cncs2)ccc(CS(=O)(=O)c2ccccc2)c1C(=O)O [6-(Benzenesulphonylmethyl)-2-methoxy-3-(thiazol-5-yl)benzoic acid]
42 | < 200 nM | COc1c(-c2ccns2)ccc(CS(=O)(=O)c2ccccc2)c1C(=O)O [6-(Benzenesulphonylmethyl-3-(isothiazol-5-yl)-2-methoxy-benzoic acid]
43 | > 2000 nM | COc1cccc(CS(=O)(=O)c2ccccc2)c1C(=O)O [2-(Benzenesulphonylmethyl)-6-methoxybenzoic acid]
44 | > 2000 nM | COc1cccc(CS(=O)(=O)c2ccccc2C)c1C(=O)O [2-Methoxy-6-(2-methylbenzenesulphonylmethyl)benzoic acid]
45 | 200 to 2000 nM | CCc1ccc(CS(=O)(=O)c2ccccc2)c(C(=O)O)c1 [2-(Benzenesulphonylmethyl)-5-ethylbenzoic acid]
